Patent publication US7048919B2, “Osteoclast secreted chemokine and uses thereof” (The UAB Research Foundation, priority 2000, dated 2006)
“Also recorded” adds a separate entry of the source.

Assays:
avian osteoclasts [1] = assay: Osteoclastic bone resorption assay (3H proline release from labeled bone); type: cell-based, avian (white Leghorn hens); settings: for effect on PMA stimulated increase in bone resorption: PMA stimulated osteoclasts
Method: Bone resorption assays using 150 μg labeled bone were cultured for four days in the presence of increasing concentrations of PMA. Resorption activity was quantified by measuring ^3H proline released to the media. Data represent the mean +/− SEM of n=5 experiments each performed in quadruplicate.
Avian osteoclasts (from egg-laying white Leghorn hens) were utilized because gram quantities of pure osteoclasts are readily obtained. Avian osteoclasts (>10^7 cells) were isolated as previously described (16). Laying hens on a limited calcium diet produce massive numbers of osteoclasts to meet the calcium requirement for eggshell production. The endosteum of such birds, is >50% osteoclasts by mass. Medullary bone is scraped from the endosteum into calcium- and magnesium-free phosphate-buffered saline (PBS) at 4° C. Cells are separated from matrix by washing through 100 μm nylon filters and sedimented through 70% newborn calf serum. Osteoclasts purified by density gradient sedimentation, result in preparations in which osteoclasts represent ˜75–90% of viable cells. Following sedimentation, macrophages represent <2% of the cell mass. For experiments requiring homogeneous osteoclasts the cells purified by serum sedimentation are then affinity purified b y attachment to bone fragments and then resedimented 24 hrs later, eliminating essentially all but viable, bone-attached osteoclasts (17).
L-[^3H]-proline-labeled devitalized bone is used as Substrate in the avian osteoclast resorption assay. This substrate has the advantages of reflecting removal of both the mineral and organic phases of bone, and is resistant to artifacts due to physicochemical exchange (e.g. media acidification (16)). Weanling rats (40–60 g) are injected with 1 mCi of L-[2,3,4,5−^3H]-proline, >100 Ci/mmol, on alternate days for 10 days. Rats are sacrificed on day 12 and bone recovered by dissection. After washing, the bone is dried in a desiccator at 42° C. for 7 days. Labeled 20–40 μm bone fragments are obtained by grinding the bone in a ball bearing mill and sieving to size.
Osteoclasts are plated at 2–3×10^3 cells/well on 24 well plates with 100 μg of labeled 20–40 μm ^3H labeled bone fragments. To avoid possible contamination (due to fusing macrophages or growth of fibroblast/osteoblast cells) bone resorption is measured after 4 days. Osteoclasts rapidly (˜4 hrs) attach to and begin to degrade the bone fragments, releasing label into the media. Bone degradation is determined by measuring label released to the media. […] The ^3H proline assay is also resistant to pH-dependent artifacts and has less inter-assay variability than pi t assays (17–19). Activity, with 100 μg bone fragments, is linear over 5–7 days (16).

avian osteoclasts [2] = assay: mim-1 secretion by osteoclasts, Western analysis of lysates and media; type: cell-based; settings: for effect on secretion of mim-1: PMA stimulated osteoclasts
Method: Avian osteoclasts were cultured as described in FIGS. 1 and 2; cells were washed with ice cold PBS and lysed. Culture media was collected from each treatment and boiled in sample buffer. Protein (25 μg) from cell lysates (Lysates) and equal aliquots of the corresponding media (Media) were resolved on 10% SDS-PAGE, transferred to PVDF membrane and Western blotted for mim-1. Molecular weights (kilodaltons) are indicated on the left. Representative of n=2 separate experiments.
Avian osteoclasts were cultured with bone (1 mg/well) for the indicated times in the presence of 0.3 μM PMA. Osteoclasts were washed with ice-cold phosphate buffered saline, lysed and 25 μg cell lysates resolved on 10% SDS-PAGE, transferred to PVDF membrane and probed with for mim-1 as described in the legend to FIG. 4. Data is representative of two separate experiments.
Avian osteoclasts are washed with phosphate buffered saline (PBS) and lysed as previously described (20). The lysis buffer (Buffer A) is 50 mM Tris, pH 7.0, 250 mM sucrose, 1 mM EGTA, 1 mM EDTA, 1 mM ammonium molybdate, 50 mM NaF, 1 mM orthovanadate, 0.5 μM okadaic acid, 5 mM benzamidine, 0.1 mM PMSF, 0.05 mg/ml pepstatin, 0.06 mg/ml leupeptin, 0.018 trypsin inhibitor units of aprotinin/ml, 10% glycerol and 1% Triton X100. Cells were solubilized 1 hr with rotation and the Triton insoluble material removed by centrifugation at 15,000×g for 5 min at 4° C. Lysates (25 μg protein) were resolved on 10% SDS-PAGE. Protein was transferred under standard conditions (21) to PVDF membranes. Mim-1 was detected on Western analysis using a polyclonal antibody generated against a trpE-mim-1 fusion protein (15) (generously provided by Scott Ness, University of New Mexico) by enhanced chemiluminescence. Protein concentrations were determined by the Bio Rad DC assay (Bio Rad, Richmond, Calif.).
To determine the effects of PMA on osteoclast secretion of mim-1 and its relation to bone resorption, osteoclasts were cultured as described above in the presence of the indicated concentrations of PMA and aliquots of media removed at the indicated times (FIG. 4) and the level of mim-1 determined b y Western analysis. As bone resorption was stimulated (see FIG. 1), mim-1 dercreased in the cell lysate (FIG. 4, left, Lysates) and increased in the culture, media (FIG. 4, right, Media).

calmodulin = assay: Calmodulin protein levels in osteoclasts; type: cell-based, avian; settings: for calmodulin protein levels: PMA treated osteoclasts

SMILES	effect on PMA stimulated increase in bone resorption (avian osteoclasts [1])	effect on secretion of mim-1 (avian osteoclasts [2])	EC50 (avian osteoclasts [1]; Osteoclast, 96 h, read-out: K0.5 of stimulation of bone resorption) [nM]	stimulation of bone resorption by isolated osteoclasts (avian osteoclasts [1]; isolated avian osteoclasts, 4 days, 3H proline released to media) [fold]	mim-1 in osteoclast cell lysates (avian osteoclasts [2]; 0.3 μM PMA, 24 hours)	secretion of mim-1 by osteoclasts (avian osteoclasts [2]; increasing concentrations of PMA)	calmodulin protein levels (calmodulin)	calmodulin protein levels (calmodulin; listed as Phorbol myristate acetate)	effect on PMA dependent increase in calmodulin levels (calmodulin; PMA stimulated osteoclasts)
CN1CCN(CCCN2c3ccccc3Sc3ccc(C(F)(F)F)cc32)CC1 [trifluoperazine]	inhibited	did not inhibit							
CCCCCCCCCCCCCC(=O)O[C@@H]1[C@@H](C)[C@@]2(O)[C@@H](C=C(CO)C[C@]3(O)C(=O)C(C)=C[C@@H]23)[C@@H]2C(C)(C)[C@]12OC(C)=O [PMA, phorbol myristate acetate]			100 to 300	4	substantially reduced	rapidly increased; also recorded: stimulated in a PMA concentration dependent manner	increase in calmodulin protein levels	dose dependent increase	
CC/C(=C(\c1ccccc1)c1ccc(OCCN(C)C)cc1)c1ccccc1 [tamoxifen]	inhibited	did not inhibit							inhibit
